Data published in paper PMC7717600, “Novel [(N-alkyl-3-indolylmethylene)hydrazono]oxindoles arrest cell cycle and induce cell apoptosis by inhibiting CDK2 and Bcl-2: synthesis, biological evaluation and in silico studies” (Journal of Enzyme Inhibition and Medicinal Chemistry, 2020).
Like-named read-outs stand apart in the source and are kept apart here.

Columns and labels:
[1] = system: panel of 59 human cancer cell lines; experiment: NCI screening, panel and subpanel summaries; conditions: for GI50: Homo sapiens
Protocol: GI50 values reflect the level for growth inhibitory effect, whereas TGI represents cytostatic impact. In addition, LC50 parameter is considered to be the cytotoxicity parameter for the examined hybrid.
Furthermore, dividing the full-panel MG-MID (µM) for the examined derivative by its individual subpanel MG-MID (µM) provides an index which is regarded as a measure for its selectivity.
The NCI-USA anticancer screening was carried out following the NCI, Bethesda, Drug Evaluation Branch protocol[22–24], utilising the SRB protein assay[21], as reported earlier[34]^,[35].
NCI-in vitro antitumor activity towards 59 cancer cell lines
The cytotoxicity assays were performed at National Cancer Institute (NCI), Bethesda, USA (against 59 cell lines). The human tumor cell lines of the cancer screening panel were grown in
screening experiment, cells were inoculated into 96 well microtiter plates in 100 µ at plating densities ranging from 5000 to 40,000 cells/well depending on the doubling time of individual
and 100% relative humidity for 24 h prior to addition of experimental drugs. After 24 h, two
plates of each cell line were fixed in situ with trichloroacetic acid (TCA), to represent a
measurement of the cell population for each cell line at the time of drug addition (Tz).
Experimental drugs were solubilized in dimethyl sulfoxide at 400-fold the desired final
maximum test concentration and stored frozen prior to use. At the time of drug addition, an
aliquot of frozen concentrate was thawed and diluted to twice the desired final maximum test
concentration with complete medium containing 50 µg/ml gentamicin. Additional four, 10-fold
or ½ log serial dilutions were made to provide a total of five drug concentrations plus control.
Aliquots of 100 µl of these different drug dilutions were added to the appropriate microtiter wells
already containing 100 µl of medium, resulting in the required final drug concentrations.
Triplicate wells were prepared for each individual dose. Following drug addition, the plates were

[2] = system: breast T-47D cancer cells; experiment: Annexin V-FITC/PI apoptosis assay; format: cell-based, human
Excerpt: In an attempt to further investigate whether the antiproliferative activity for conjugate 8a is harmonious with the apoptosis induction within T-47D cells pointed out by the increased cell population in sub-G1 phase in 8a-treated T-47D cells (Figure 3), Annexin V-FITC/PI dual staining analysis was used for the apoptosis assay (Figure 4).
Phosphatidylserine externalisation effect of conjugate 8a over breast T-47D cancer cell line was investigated using Annexin-V-FITC Apoptosis Detection Kit by flow cytometry, as described earlier.
4.2.4. Cell Cycle Analysis
Subsequently, the treated cells
Annexin V-FITC Apoptosis Assay
period of 30 min at 4 °C.
Technologies, Darmstadt, Germany).
μl PEG20.000). […] H3PO4. Aliquots were […]

K-562 = experiment: cells; conditions: Homo sapiens
NCI-H522 = experiment: cells; conditions: Homo sapiens
UACC-257 = experiment: cells; conditions: Homo sapiens
HOP-92 = experiment: cells; conditions: Homo sapiens
OVCAR-3 = experiment: cells; conditions: Homo sapiens
SW-620 = experiment: cells; conditions: Homo sapiens
SK-MEL-2 = experiment: cells; conditions: Homo sapiens
Bcl-2 = Bcl-2 (Homo sapiens, UniProt P10415); experiment: Bcl-2 inhibitory activity; format: biochemical; conditions: Bcl-2, mean ± SE of three
Sequence of Bcl-2 (P10415 whole entry): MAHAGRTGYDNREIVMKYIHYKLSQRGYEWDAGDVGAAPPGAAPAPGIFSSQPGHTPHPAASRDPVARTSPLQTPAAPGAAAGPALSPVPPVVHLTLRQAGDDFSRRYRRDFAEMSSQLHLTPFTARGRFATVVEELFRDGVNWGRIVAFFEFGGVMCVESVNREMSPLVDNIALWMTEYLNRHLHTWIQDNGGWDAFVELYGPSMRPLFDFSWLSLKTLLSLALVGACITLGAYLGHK
Protocol: These assays were carried out as reported earlier[38]^,[39].

HCT-116 = experiment: cells; conditions: Homo sapiens
HOP-62 = experiment: cells; conditions: Homo sapiens
RXF 393 = experiment: cells; conditions: Homo sapiens
DU-145 = experiment: cells; conditions: Homo sapiens
IGROV1 = experiment: cells; conditions: Homo sapiens
UACC-62 = experiment: cells; conditions: Homo sapiens
NCI-H226 = experiment: cells; conditions: Homo sapiens
TK-10 = experiment: cells; conditions: Homo sapiens
SK-MEL-5 = experiment: cells; conditions: Homo sapiens
U251 = experiment: cells; conditions: Homo sapiens
CCRF-CEM = experiment: cells; conditions: Homo sapiens
NCI/ADR-RES = experiment: cells; conditions: Homo sapiens
ACHN = experiment: cells; conditions: Homo sapiens
RPMI-8226 = experiment: cells; conditions: Homo sapiens
A549/ATCC = experiment: cells; conditions: Homo sapiens
SF-268 = experiment: cells; conditions: Homo sapiens
T-47D = experiment: cells; conditions: Homo sapiens, T47D
SK-MEL-28 = experiment: cells; conditions: Homo sapiens
MOLT-4 = experiment: cells; conditions: Homo sapiens
MDA-MB-231/ATCC = experiment: cells; conditions: Homo sapiens

CCCn1cc(C=NN=C2C(=O)Nc3ccc(C)cc32)c2ccccc21 [Compound 8a]
mean GI % ([1]; 10 µM single dose, all cell lines): 59% | Mean Growth Percent ([1]; 1.00E-5 Molar, one dose mean graph): 41.08% | Selectivity index ([1]; Breast Cancer subpanel): 1.00 | Selectivity index ([1]; CNS Cancer subpanel): 0.75 | Selectivity index ([1]; Colon Cancer subpanel): 1.25 | GI50 ([1]; read-out: Full panel MG-MID (GI50), five-dose): 3.1 µM | GI50 ([1]; read-out: GI50 values range, five-dose, across cell lines except UACC-257, TK-10, HS 578 T): 1.17 to 8.41 µM | GI50 ([1]; read-out: MG-MID (GI50), Breast Cancer subpanel): 3.09 µM | GI50 ([1]; read-out: MG-MID (GI50), CNS Cancer subpanel): 4.08 µM | GI50 ([1]; read-out: MG-MID (GI50), Colon Cancer subpanel): 2.47 µM | GI50 ([1]; read-out: MG-MID (GI50), Leukaemia subpanel): 1.33 µM | GI50 ([1]; read-out: MG-MID (GI50), Melanoma subpanel): 3.45 µM | GI50 ([1]; read-out: MG-MID (GI50), NSCL Cancer subpanel): 3.22 µM | GI50 ([1]; read-out: MG-MID (GI50), Ovarian Cancer subpanel): 3.24 µM | GI50 ([1]; read-out: MG-MID (GI50), Prostate Cancer subpanel): 2.85 µM | GI50 ([1]; read-out: MG-MID (GI50), Renal Cancer subpanel): 4.23 µM | GI50 ([1]; read-out: sub-panel GI50 (MG-MID) range, five-dose): 1.33 to 4.23 µM | Selectivity index ([1]; Leukaemia subpanel): 2.33 | Selectivity index ([1]; Melanoma subpanel): 0.89 | Selectivity index ([1]; NSCL Cancer subpanel): 0.96 | Selectivity index ([1]; Ovarian Cancer subpanel): 0.95 | Selectivity index ([1]; Prostate Cancer subpanel): 1.08 | Selectivity index ([1]; Renal Cancer subpanel): 0.73 | Log10GI50 _MID ([1]; five-dose mean graph): -5.59 Molar | Log10LC50 _MID ([1]; five-dose mean graph): -4.12 Molar | Log10TGI _MID ([1]; five-dose mean graph): -4.69 Molar | TGI range ([1]; five-dose, against 22 cancer cell lines): 2.96 to 8.03 µM | TGI interval ([1]; five-dose, remaining cancer cell lines): 10.6 to 96.6 µM | selectivity ratios range ([1]; full-panel MG-MID / subpanel MG-MID): 0.73 to 2.33 | apoptotic cells, early apoptotic phase ([2]; control 0.26%): 4.82% | apoptotic cells, late apoptotic phase ([2]; control 0.47%): 14.62% | increase in total apoptosis ([2]; vs untreated control): about 26 fold | GI50 (K-562; K562): 2.22 µM | CC50 (K-562; K562, read-out: LC50): > 100 µM | GI50 (NCI-H522; NCI-H522): 1.81 µM | CC50 (NCI-H522; NCI-H522, read-out: LC50): > 100 µM | GI50 (UACC-257; UACC-257): 12.3 µM | CC50 (UACC-257; UACC-257, read-out: LC50): > 100 µM | GI50 (HOP-92; HOP-92): 1.87 µM | CC50 (HOP-92; HOP-92, read-out: LC50): > 100 µM | GI50 (OVCAR-3; OVCAR-3): 1.36 µM | CC50 (OVCAR-3; OVCAR-3, read-out: LC50): > 100 µM | GI50 (SW-620; SW-620): 2.97 µM | CC50 (SW-620; SW-620, read-out: LC50): > 100 µM | GI50 (SK-MEL-2; SK-MEL-2): 2.42 µM | CC50 (SK-MEL-2; SK-MEL-2, read-out: LC50): > 100 µM | IC50 (Bcl-2): 0.46 ± 0.02 µM | GI50 (HCT-116; HCT-116): 1.75 µM | CC50 (HCT-116; HCT-116, read-out: LC50, HCT-116): 19 µM | GI50 (HOP-62; HOP-62): 4.17 µM | CC50 (HOP-62; HOP-62, read-out: LC50): > 100 µM | GI50 (RXF 393; RXF 393): 2.17 µM | CC50 (RXF 393; RXF 393, read-out: LC50): > 100 µM | GI50 (DU-145; DU-145): 3.88 µM | CC50 (DU-145; DU-145, read-out: LC50): > 100 µM | GI50 (IGROV1; IGROV-1): 3.38 µM | CC50 (IGROV1; IGROV-1, read-out: LC50): > 100 µM | GI50 (UACC-62; UACC-62): 2.24 µM | CC50 (UACC-62; UACC-62, read-out: LC50): > 100 µM | GI50 (NCI-H226; NCI-H226): 2.95 µM | CC50 (NCI-H226; NCI-H226, read-out: LC50): > 100 µM | GI50 (TK-10; TK-10): 11.1 µM | CC50 (TK-10; TK-10, read-out: LC50): > 100 µM | GI50 (SK-MEL-5; SK-MEL-5): 2.86 µM | CC50 (SK-MEL-5; SK-MEL-5, read-out: LC50, SK-MEL-5): 47.4 µM | GI50 (U251; U-251): 3.51 µM | CC50 (U251; U-251, read-out: LC50): > 100 µM | GI50 (CCRF-CEM): 1.94 µM | CC50 (CCRF-CEM; read-out: LC50): > 100 µM | GI50 (NCI/ADR-RES): 6.39 µM | CC50 (NCI/ADR-RES; read-out: LC50): > 100 µM | GI50 (ACHN): 3.56 µM | CC50 (ACHN; read-out: LC50): > 100 µM | GI50 (RPMI-8226; RPMI-8226): 1.33 µM | CC50 (RPMI-8226; RPMI-8226, read-out: LC50): > 100 µM | GI50 (A549/ATCC; A549): 7.18 µM | CC50 (A549/ATCC; A549, read-out: LC50): > 100 µM | GI50 (SF-268; SF-268): 3.33 µM | CC50 (SF-268; SF-268, read-out: LC50): > 100 µM | GI50 (T-47D; T-47D): 0.416 µM | CC50 (T-47D; read-out: LC50): > 100 µM | GI50 (SK-MEL-28; SK-MEL-28): 4.7 µM | CC50 (SK-MEL-28; SK-MEL-28, read-out: LC50): > 100 µM | GI50 (MOLT-4; MOLT-4, MOLT-4): 0.682 µM | CC50 (MOLT-4; MOLT-4, read-out: LC50): > 100 µM | GI50 (MDA-MB-231/ATCC; MDA-MB-231): 1.81 µM | CC50 (MDA-MB-231/ATCC; MDA-MB-231, read-out: LC50): > 100 µM
